The results in this text go back to patent publication US9351974B2, “Substituted pteridinones for the treatment of cancer” (OSI Pharmaceuticals, LLC, priority 2011, dated 2016).

One may read the IC50 as the concentration that inhibits the measured activity by half.

Molecules are shown by their SMILES.

This assay deals with T1, His-tagged full-length RSK2 (RPS6KA3) (Homo sapiens, UniProt P51812).
T1 construct: His-tagged full-length RSK2 (RPS6KA3, Invitrogen PV3323); His; purchased Invitrogen PV3323
T1 sequence (P51812 whole entry): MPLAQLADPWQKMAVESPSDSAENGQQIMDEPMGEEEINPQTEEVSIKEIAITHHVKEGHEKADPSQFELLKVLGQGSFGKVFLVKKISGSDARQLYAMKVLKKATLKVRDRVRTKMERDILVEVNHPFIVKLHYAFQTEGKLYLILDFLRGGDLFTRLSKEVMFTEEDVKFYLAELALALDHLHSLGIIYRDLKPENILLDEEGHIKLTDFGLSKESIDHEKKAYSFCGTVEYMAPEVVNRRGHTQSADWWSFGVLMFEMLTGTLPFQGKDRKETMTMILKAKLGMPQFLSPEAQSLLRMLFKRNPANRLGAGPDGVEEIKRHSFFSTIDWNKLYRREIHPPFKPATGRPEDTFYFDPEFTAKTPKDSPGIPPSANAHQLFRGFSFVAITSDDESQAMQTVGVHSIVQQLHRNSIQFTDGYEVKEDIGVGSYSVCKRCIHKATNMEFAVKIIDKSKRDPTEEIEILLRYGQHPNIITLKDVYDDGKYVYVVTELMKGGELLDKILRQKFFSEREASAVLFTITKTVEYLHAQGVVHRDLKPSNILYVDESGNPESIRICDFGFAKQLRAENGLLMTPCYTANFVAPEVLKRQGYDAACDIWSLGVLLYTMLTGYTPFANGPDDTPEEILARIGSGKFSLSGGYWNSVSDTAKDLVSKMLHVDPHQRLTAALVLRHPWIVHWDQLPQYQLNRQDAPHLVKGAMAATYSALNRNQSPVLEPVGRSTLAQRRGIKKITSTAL
The experiment in a line: RSK2 Omnia Assay for compound IC50 determination. Format: biochemical. The conditions noted are these: ATP 15 μM, n=2, read-out: Mean RSK2 Biochem IC50. Put shortly: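 Initial-rate slopes from continuous kinetic reads were fitted to a four-parameter equation for IC50 (n=2). Ki was then derived by Cheng-Prusoff assuming ATP-competitive inhibition. Reactions contained 15 μM ATP (Km 16.3 μM), 5 μM Omnia ST Peptide 6, and […] in 50 mM HEPES pH 7.5, 10 mM MgCl2, 1 mM DTT, 1% DMSO. Compounds spanned 11 threefold steps, […] final.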
On to `CO[C@H]1CC[C@@H](N2c3nc(Nc4cc(F)c5[nH]ncc5c4)ncc3N(c3cccnc3)C(=O)[C@H]2C)CC1` [compound 227, (7R)-2-[(7-fluoro-1H-indazol-5-yl)amino]-8-(cis-4-methoxycyclohexyl)-7-methyl-5-(pyridin-3-yl)-7,8-dihydropteridin-6(5H)-one], for which the IC50 is no more than 100 nM. With `CO[C@H]1CC[C@@H](N2c3nc(Nc4ccc5[nH]c(=O)oc5c4)ncc3N(c3cccc(C#N)c3)C(=O)[C@H]2C)CC1` [compound 228, 3-[(7R)-8-(cis-4-methoxycyclohexyl)-7-methyl-6-oxo-2-[(2-oxo-2,3-dihydro-1,3-benzoxazol-6-yl)amino]-7,8-dihydropteridin-5(6H)-yl]benzonitrile] the figure was no more than 100 nM; with `CO[C@H]1CC[C@H](N2c3nc(Nc4ccc5[nH]c(=O)oc5c4)ncc3N(c3cccc(C#N)c3)C(=O)[C@H]2C)CC1` [compound 229, 3-[(7R)-8-(trans-4-methoxycyclohexyl)-7-methyl-6-oxo-2-[(2-oxo-2,3-dihydro-1,3-benzoxazol-6-yl)amino]-7,8-dihydropteridin-5(6H)-yl]benzonitrile], no more than 100 nM; with `CO[C@H]1CC[C@H](N2c3nc(Nc4cc5cn[nH]c5cn4)ncc3N(c3cccc(C#N)c3)C(=O)[C@H]2C)CC1` [compound 230, 3-[(7R)-8-(trans-4-methoxycyclohexyl)-7-methyl-6-oxo-2-(1H-pyrazolo[3,4-c]pyridin-5-ylamino)-7,8-dihydropteridin-5(6H)-yl]benzonitrile], 100 to 1000 nM. With `CO[C@H]1CC[C@H](N2c3nc(Nc4cnc5[nH]ncc5c4)ncc3N(c3cccc(C#N)c3)C(=O)[C@H]2C)CC1` [compound 231, 3-[(7R)-8-(trans-4-methoxycyclohexyl)-7-methyl-6-oxo-2-(1H-pyrazolo[3,4-b]pyridin-5-ylamino)-7,8-dihydropteridin-5(6H)-yl]benzonitrile], the IC50 was no more than 100 nM. With `CO[C@H]1CC[C@H](N2c3nc(Nc4cc(F)c(O)c(F)c4)ncc3N(c3cccc(C#N)c3)C(=O)[C@H]2C)CC1` [compound 232, 3-[(7R)-2-[(3,5-difluoro-4-hydroxyphenyl)amino]-8-(trans-4-methoxycyclohexyl)-7-methyl-6-oxo-7,8-dihydropteridin-5(6H)-yl]benzonitrile] the figure was no more than 100 nM; with `CO[C@H]1CC[C@H](N2c3nc(Nc4cc(F)c5[nH]ncc5c4)ncc3N(c3ccc(N4CCN(C)CC4)nc3)C(=O)[C@H]2C)CC1` [compound 233, (7R)-2-[(7-fluoro-1H-indazol-5-yl)amino]-8-(trans-4-methoxycyclohexyl)-7-methyl-5-[6-(4-methylpiperazin-1-yl)pyridin-3-yl]-7,8-dihydropteridin-6(5H)-one], no more than 100 nM. As for `COc1ccc(N2C(=O)[C@@H](C)N([C@H]3CC[C@H](OC)CC3)c3nc(Nc4cnc5[nH]ncc5c4)ncc32)cc1C#N` [compound 234, 2-methoxy-5-[(7R)-8-(trans-4-methoxycyclohexyl)-7-methyl-6-oxo-2-(1H-pyrazolo[3,4-b]pyridin-5-ylamino)-7,8-dihydropteridin-5(6H)-yl]benzonitrile], the IC50 was no more than 100 nM. As to `COc1ccc(N2C(=O)[C@@H](C)N([C@H]3CC[C@H](OC)CC3)c3nc(Nc4ccc5[nH]c(=O)oc5c4)ncc32)cc1C#N` [compound 235, 2-methoxy-5-[(7R)-8-(trans-4-methoxycyclohexyl)-7-methyl-6-oxo-2-[(2-oxo-2,3-dihydro-1,3-benzoxazol-6-yl)amino]-7,8-dihydropteridin-5(6H)-yl]benzonitrile], the IC50 is no more than 100 nM.

Turning to `C[C@@H]1C(=O)N(c2cccc(C#N)c2)c2cnc(Nc3cc(F)c4[nH]ncc4c3)nc2N1[C@H]1CC[C@@H](C)CC1` [compound 236, 3-[(7R)-2-[(7-fluoro-1H-indazol-5-yl)amino]-7-methyl-8-(cis-4-methylcyclohexyl)-6-oxo-7,8-dihydropteridin-5(6H)-yl]benzonitrile], the IC50 is no more than 100 nM.
